Test results: publication PMC10818821, “Towards a New Generation of Hormone Therapies: Design, Synthesis and Biological Evaluation of Novel 1,2,3-Triazoles as Estrogen-Positive Breast Cancer Therapeutics and Non-Steroidal Aromatase Inhibitors” (Pharmaceuticals, 2024)

Molecular target: T1, aromatase (CYP19) (Homo sapiens, UniProt P11511)
T1 construct: gene CYP19A1
T1 sequence (P11511 1-503): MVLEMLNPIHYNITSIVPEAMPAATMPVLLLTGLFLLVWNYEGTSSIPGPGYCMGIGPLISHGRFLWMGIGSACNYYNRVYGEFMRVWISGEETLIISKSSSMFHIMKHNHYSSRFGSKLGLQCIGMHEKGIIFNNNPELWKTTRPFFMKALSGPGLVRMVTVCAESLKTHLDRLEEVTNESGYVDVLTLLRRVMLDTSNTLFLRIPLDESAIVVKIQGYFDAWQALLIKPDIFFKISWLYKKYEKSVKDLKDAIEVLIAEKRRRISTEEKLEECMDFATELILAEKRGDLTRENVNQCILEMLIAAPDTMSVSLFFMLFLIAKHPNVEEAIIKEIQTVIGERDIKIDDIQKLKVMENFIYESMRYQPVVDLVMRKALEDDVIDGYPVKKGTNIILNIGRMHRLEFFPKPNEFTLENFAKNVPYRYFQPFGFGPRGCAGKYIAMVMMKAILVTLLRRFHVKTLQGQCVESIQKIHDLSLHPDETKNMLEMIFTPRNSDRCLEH
Assay: fluorogenic aromatase activity assay (Abcam kit), dose-response […]
Format: biochemical

Structure (SMILES) | IC50 [µM]
COc1ccc(-n2nnc(C(C)=NN=c3sc(C(C)=O)nn3-c3ccccc3)c2C)cc1 [compound 4, 1-(5-((1-(1-(4-Methoxyphenyl)-5-methyl-1H-1,2,3-triazol-4-yl)ethylidene)hydrazono)-4-phenyl-4,5-dihydro-1,3,4-thiadiazol-2-yl)ethan-1-one] | 3.62
COc1ccc(-n2nnc(C(C)=NN=c3sc(C(C)=O)nn3-c3ccc(C)cc3)c2C)cc1 [compound 5, 1-(5-((1-(1-(4-Methoxyphenyl)-5-methyl-1H-1,2,3-triazol-4-yl)ethylidene)hydrazono)-4-(p-tolyl)-4,5-dihydro-1,3,4-thiadiazol-2-yl)ethan-1-one] | 1.99
CCOC(=O)c1nn(-c2ccccc2)c(=NN=C(C)c2nnn(-c3ccc(OC)cc3)c2C)s1 [compound 6, Ethyl 5-((1-(1-(4-Methoxyphenyl)-5-methyl-1H-1,2,3-triazol-4-yl)ethylidene)hydrazono)-4-phenyl-4,5-dihydro-1,3,4-thiadiazole-2-carboxylate] | 3.57
CCOC(=O)c1nn(-c2ccc(C)cc2)c(=NN=C(C)c2nnn(-c3ccc(OC)cc3)c2C)s1 [compound 7, Ethyl 5-((1-(1-(4-Methoxyphenyl)-5-methyl-1H-1,2,3-triazol-4-yl)ethylidene) hydrazono)-4-(p-tolyl)-4,5-dihydro-1,3,4-thiadiazole-2-carboxylate] | 2.99
